Measurements reported in ChEMBL document CHEMBL6134788, “Development of naphthalimide hydrazide derivatives as potent antibacterial agents against carbapenem-resistant A. baumannii” (RSC Med Chem, 2024).
≈ marks a conversion by molar mass, not a printed value.

How the values were obtained:
Type in all cases: functional
Details in all cases: time 16-18 hrs, read-out: MIC100
Staphylococcus aureus = test: Antibacterial activity against Staphylococcus aureus ATCC 29213 assessed as inhibition of bacterial growth incubated for 16 to 18 hrs by CLSI protocol based method
Pseudomonas aeruginosa = test: Antibacterial activity against Pseudomonas aeruginosa ATCC 27853 assessed as inhibition of bacterial growth incubated for 16 to 18 hrs by CLSI protocol based method
Klebsiella pneumoniae = test: Antibacterial activity against Klebsiella pneumoniae BAA 1705 assessed as inhibition of bacterial growth incubated for 16 to 18 hrs by CLSI protocol based method
Acinetobacter baumannii [1] = test: Antibacterial activity against carbapenem-resistant Acinetobacter baumannii BAA 1605 assessed as inhibition of bacterial growth incubated for 16 to 18 hrs by CLSI protocol based method
Escherichia coli = test: Antibacterial activity against Escherichia coli ATCC 25922 assessed as inhibition of bacterial growth incubated for 16 to 18 hrs by CLSI protocol based method
Acinetobacter baumannii [2] = test: Antibacterial activity against multi-drug resistant Acinetobacter baumannii clinical isolate 11 assessed as inhibition of bacterial growth incubated for 16 to 18 hrs by CLSI protocol based method
Acinetobacter baumannii [3] = test: Antibacterial activity against multi-drug resistant Acinetobacter baumannii NR-17777 assessed as inhibition of bacterial growth incubated for 16 to 18 hrs by CLSI protocol based method
Acinetobacter baumannii [4] = test: Antibacterial activity against multi-drug resistant Acinetobacter baumannii H72721 assessed as inhibition of bacterial growth incubated for 16 to 18 hrs by CLSI protocol based method
Acinetobacter baumannii [5] = test: Antibacterial activity against multi-drug resistant Acinetobacter baumannii clinical isolate 10 assessed as inhibition of bacterial growth incubated for 16 to 18 hrs by CLSI protocol based method
Acinetobacter baumannii [6] = test: Antibacterial activity against multi-drug resistant Acinetobacter baumannii clinical isolate 4 assessed as inhibition of bacterial growth incubated for 16 to 18 hrs by CLSI protocol based method
Acinetobacter baumannii [7] = test: Antibacterial activity against multi-drug resistant Acinetobacter baumannii WL-136 assessed as inhibition of bacterial growth incubated for 16 to 18 hrs by CLSI protocol based method
Acinetobacter baumannii [8] = test: Antibacterial activity against multi-drug resistant Acinetobacter baumannii clinical isolate 8 assessed as inhibition of bacterial growth incubated for 16 to 18 hrs by CLSI protocol based method
Acinetobacter baumannii [9] = test: Antibacterial activity against multi-drug resistant Acinetobacter baumannii 5-109 assessed as inhibition of bacterial growth incubated for 16 to 18 hrs by CLSI protocol based method
Acinetobacter baumannii [10] = test: Antibacterial activity against multi-drug resistant Acinetobacter baumannii clinical isolate 5 assessed as inhibition of bacterial growth incubated for 16 to 18 hrs by CLSI protocol based method
Acinetobacter baumannii [11] = test: Antibacterial activity against multi-drug resistant Acinetobacter baumannii clinical isolate 12 assessed as inhibition of bacterial growth incubated for 16 to 18 hrs by CLSI protocol based method
Acinetobacter baumannii [12] = test: Antibacterial activity against multi-drug resistant Acinetobacter baumannii 5-143 assessed as inhibition of bacterial growth incubated for 16 to 18 hrs by CLSI protocol based method
Acinetobacter baumannii [13] = test: Antibacterial activity against multi-drug resistant Acinetobacter baumannii Naval-81 assessed as inhibition of bacterial growth incubated for 16 to 18 hrs by CLSI protocol based method
Acinetobacter baumannii [14] = test: Antibacterial activity against Acinetobacter baumannii ATCC 17978 assessed as inhibition of bacterial growth incubated for 16 to 18 hrs by CLSI protocol based method
Acinetobacter baumannii [15] = test: Antibacterial activity against multi-drug resistant Acinetobacter baumannii clinical isolate 2 assessed as inhibition of bacterial growth incubated for 16 to 18 hrs by CLSI protocol based method
Acinetobacter baumannii [16] = test: Antibacterial activity against multi-drug resistant Acinetobacter baumannii clinical isolate 3 assessed as inhibition of bacterial growth incubated for 16 to 18 hrs by CLSI protocol based method
Acinetobacter baumannii [17] = test: Antibacterial activity against multi-drug resistant Acinetobacter baumannii clinical isolate 1 assessed as inhibition of bacterial growth incubated for 16 to 18 hrs by CLSI protocol based method
Acinetobacter baumannii [18] = test: Antibacterial activity against multi-drug resistant Acinetobacter baumannii 5-189 assessed as inhibition of bacterial growth incubated for 16 to 18 hrs by CLSI protocol based method
Acinetobacter baumannii [19] = test: Antibacterial activity against multi-drug resistant Acinetobacter baumannii clinical isolate 9 assessed as inhibition of bacterial growth incubated for 16 to 18 hrs by CLSI protocol based method
Acinetobacter baumannii [20] = test: Antibacterial activity against multi-drug resistant Acinetobacter baumannii clinical isolate 6 assessed as inhibition of bacterial growth incubated for 16 to 18 hrs by CLSI protocol based method
Acinetobacter baumannii [21] = test: Antibacterial activity against multi-drug resistant Acinetobacter baumannii Naval-18 assessed as inhibition of bacterial growth incubated for 16 to 18 hrs by CLSI protocol based method
Acinetobacter baumannii [22] = test: Antibacterial activity against multi-drug resistant Acinetobacter baumannii clinical isolate 7 assessed as inhibition of bacterial growth incubated for 16 to 18 hrs by CLSI protocol based method
Acinetobacter baumannii [23] = test: Antibacterial activity against multi-drug resistant Acinetobacter baumannii BC-5 assessed as inhibition of bacterial growth incubated for 16 to 18 hrs by CLSI protocol based method
Acinetobacter baumannii [24] = test: Antibacterial activity against multi-drug resistant Acinetobacter baumannii WL-487 assessed as inhibition of bacterial growth incubated for 16 to 18 hrs by CLSI protocol based method
Acinetobacter baumannii [25] = test: Antibacterial activity against multi-drug resistant Acinetobacter baumannii Naval-17 assessed as inhibition of bacterial growth incubated for 16 to 18 hrs by CLSI protocol based method
Acinetobacter baumannii [26] = test: Antibacterial activity against multi-drug resistant Acinetobacter baumannii 5-032 assessed as inhibition of bacterial growth incubated for 16 to 18 hrs by CLSI protocol based method

## Cc1ccc(NNC(=O)CCN2C(=O)c3cccc4cccc(c34)C2=O)c(C)c1
Staphylococcus aureus
  MIC: > 64 µg/mL
Pseudomonas aeruginosa
  MIC: > 64 µg/mL
Klebsiella pneumoniae
  MIC: > 64 µg/mL
Acinetobacter baumannii [1]
  MIC: > 64 µg/mL
Escherichia coli
  MIC: > 64 µg/mL

## O=C(NNc1ccc(Cl)cc1)[C@@H](Cc1ccccc1)N1C(=O)c2cccc3cccc(c23)C1=O
Staphylococcus aureus
  MIC: > 64 µg/mL
Pseudomonas aeruginosa
  MIC: > 64 µg/mL
Klebsiella pneumoniae
  MIC: > 64 µg/mL
Acinetobacter baumannii [1]
  MIC: 4 µg/mL (≈ 8.51 µM)
Escherichia coli
  MIC: > 64 µg/mL

## N#Cc1ccc(NNC(=O)CCN2C(=O)c3cccc4c(Br)ccc(c34)C2=O)cc1
Staphylococcus aureus
  MIC: > 64 µg/mL
Pseudomonas aeruginosa
  MIC: > 64 µg/mL
Klebsiella pneumoniae
  MIC: > 64 µg/mL
Acinetobacter baumannii [1]
  MIC: 4 µg/mL (≈ 8.63 µM)
Escherichia coli
  MIC: > 64 µg/mL

## NC[C@H]1O[C@H](O[C@H]2[C@H](O)[C@@H](O[C@H]3O[C@H](CO)[C@@H](O)[C@H](N)[C@H]3O)[C@H](N)C[C@@H]2N)[C@H](N)C[C@@H]1O [TOBRAMYCIN]
Acinetobacter baumannii [1]
  MIC: 4 µg/mL (≈ 8.56 µM)

## CN(C)c1ccc(O)c2c1C[C@H]1C[C@H]3[C@H](N(C)C)C(O)=C(C(N)=O)C(=O)[C@@]3(O)C(O)=C1C2=O [MINOCYCLINE]
Acinetobacter baumannii [2]
  MIC: 2 µg/mL (≈ 4.37 µM)
Acinetobacter baumannii [3]
  MIC: 2 µg/mL (≈ 4.37 µM)
Acinetobacter baumannii [4]
  MIC: 2 µg/mL (≈ 4.37 µM)
Acinetobacter baumannii [5]
  MIC: 2 µg/mL (≈ 4.37 µM)
Acinetobacter baumannii [6]
  MIC: 2 µg/mL (≈ 4.37 µM)
Acinetobacter baumannii [7]
  MIC: 0.25 µg/mL (≈ 0.546 µM)
Acinetobacter baumannii [8]
  MIC: 4 µg/mL (≈ 8.74 µM)
Acinetobacter baumannii [9]
  MIC: 2 µg/mL (≈ 4.37 µM)
Acinetobacter baumannii [10]
  MIC: 8 µg/mL (≈ 17.5 µM)
Acinetobacter baumannii [11]
  MIC: 4 µg/mL (≈ 8.74 µM)
Acinetobacter baumannii [12]
  MIC: 0.25 µg/mL (≈ 0.546 µM)
Acinetobacter baumannii [13]
  MIC: 1 µg/mL (≈ 2.19 µM)
Acinetobacter baumannii [14]
  MIC: 0.125 µg/mL (≈ 0.273 µM)
Acinetobacter baumannii [15]
  MIC: 2 µg/mL (≈ 4.37 µM)
Acinetobacter baumannii [16]
  MIC: 1 µg/mL (≈ 2.19 µM)
Acinetobacter baumannii [17]
  MIC: 2 µg/mL (≈ 4.37 µM)
Acinetobacter baumannii [18]
  MIC: 8 µg/mL (≈ 17.5 µM)
Acinetobacter baumannii [19]
  MIC: 4 µg/mL (≈ 8.74 µM)
Acinetobacter baumannii [20]
  MIC: 4 µg/mL (≈ 8.74 µM)
Acinetobacter baumannii [21]
  MIC: 1 µg/mL (≈ 2.19 µM)
Acinetobacter baumannii [22]
  MIC: 8 µg/mL (≈ 17.5 µM)
Acinetobacter baumannii [23]
  MIC: 2 µg/mL (≈ 4.37 µM)
Acinetobacter baumannii [24]
  MIC: 0.25 µg/mL (≈ 0.546 µM)
Acinetobacter baumannii [25]
  MIC: 16 µg/mL (≈ 35 µM)
Acinetobacter baumannii [1]
  MIC: 2 µg/mL (≈ 4.37 µM)
Acinetobacter baumannii [26]
  MIC: 0.25 µg/mL (≈ 0.546 µM)

## O=C(CCN1C(=O)c2cccc3cccc(c23)C1=O)NNc1ccccc1
Staphylococcus aureus
  MIC: > 64 µg/mL
Pseudomonas aeruginosa
  MIC: > 64 µg/mL
Klebsiella pneumoniae
  MIC: > 64 µg/mL
Acinetobacter baumannii [1]
  MIC: 8 µg/mL (≈ 22.3 µM)
Escherichia coli
  MIC: > 64 µg/mL

## O=C(CCN1C(=O)c2cccc3cccc(c23)C1=O)NNc1cc(Cl)cc(Cl)c1
Staphylococcus aureus
  MIC: > 64 µg/mL
Pseudomonas aeruginosa
  MIC: > 64 µg/mL
Klebsiella pneumoniae
  MIC: > 64 µg/mL
Acinetobacter baumannii [1]
  MIC: > 64 µg/mL
Escherichia coli
  MIC: > 64 µg/mL

## N#Cc1ccc(NNC(=O)CCCN2C(=O)c3cccc4cccc(c34)C2=O)cc1
Staphylococcus aureus
  MIC: > 64 µg/mL
Pseudomonas aeruginosa
  MIC: > 64 µg/mL
Klebsiella pneumoniae
  MIC: > 64 µg/mL
Acinetobacter baumannii [1]
  MIC: 2 µg/mL (≈ 5.02 µM)
Escherichia coli
  MIC: > 64 µg/mL

## O=C(CCN1C(=O)c2cccc3c(Br)ccc(c23)C1=O)NNc1ccc(Cl)cc1
Staphylococcus aureus
  MIC: > 64 µg/mL
Pseudomonas aeruginosa
  MIC: > 64 µg/mL
Klebsiella pneumoniae
  MIC: > 64 µg/mL
Acinetobacter baumannii [1]
  MIC: 4 µg/mL (≈ 8.46 µM)
Escherichia coli
  MIC: > 64 µg/mL

## O=C(CCN1C(=O)c2cccc3cccc(c23)C1=O)NNc1cc(F)cc(F)c1
Staphylococcus aureus
  MIC: > 64 µg/mL
Pseudomonas aeruginosa
  MIC: > 64 µg/mL
Klebsiella pneumoniae
  MIC: > 64 µg/mL
Acinetobacter baumannii [1]
  MIC: > 64 µg/mL
Escherichia coli
  MIC: > 64 µg/mL

## Cc1ccc(NNC(=O)CCN2C(=O)c3cccc4cccc(c34)C2=O)cc1
Staphylococcus aureus
  MIC: > 64 µg/mL
Pseudomonas aeruginosa
  MIC: > 64 µg/mL
Klebsiella pneumoniae
  MIC: > 64 µg/mL
Acinetobacter baumannii [1]
  MIC: 4 µg/mL (≈ 10.7 µM)
Escherichia coli
  MIC: > 64 µg/mL

## O=C(CCCN1C(=O)c2cccc3cccc(c23)C1=O)NNc1ccccc1
Staphylococcus aureus
  MIC: > 64 µg/mL
Pseudomonas aeruginosa
  MIC: > 64 µg/mL
Klebsiella pneumoniae
  MIC: > 64 µg/mL
Acinetobacter baumannii [1]
  MIC: 4 µg/mL (≈ 10.7 µM)
Escherichia coli
  MIC: > 64 µg/mL

## O=C(CCN1C(=O)c2cccc3cccc(c23)C1=O)NNc1cccc(Br)c1
Staphylococcus aureus
  MIC: > 64 µg/mL
Pseudomonas aeruginosa
  MIC: > 64 µg/mL
Klebsiella pneumoniae
  MIC: > 64 µg/mL
Acinetobacter baumannii [1]
  MIC: > 64 µg/mL
Escherichia coli
  MIC: > 64 µg/mL

## O=C(CCN1C(=O)c2cccc3cccc(c23)C1=O)NNc1ccc(Cl)cc1Cl
Staphylococcus aureus
  MIC: > 64 µg/mL
Pseudomonas aeruginosa
  MIC: > 64 µg/mL
Klebsiella pneumoniae
  MIC: > 64 µg/mL
Acinetobacter baumannii [1]
  MIC: > 64 µg/mL
Escherichia coli
  MIC: > 64 µg/mL
